Measurements published in patent publication US7576095B2, “Therapeutic agents” (Astrazeneca AB, priority 2005, dated 2009).

Assays:
[1] = molecular target: T1, CB1 receptor (Homo sapiens, UniProt P21554); assay: [35S]-GTPγS binding assay, membranes of cells stably transfected with the CB1 gene, inhibition of agonist CP55940 (EC80); format: biochemical; conditions: half maximal inhibition of GTPγS binding; EC80 concentration of CP55940
T1 construct: expressed in transfected cells
Procedure: Compounds of the present invention are active against the receptor product of the CB1 gene. The affinity of the compounds of the invention for central cannabinoid receptors is demonstrable in methods described in Devane et al , Molecular Pharmacology, 1988, 34,605 or those described in WO01/70700 or EP 656354. Alternatively the assay may be performed as follows.
10 μg of membranes prepared from cells stably transfected with the CB1 gene were suspended in 200 μl of 100 mM NaCl, 5 mM MgCl2, 1 mM EDTA, 50 mM HEPES (pH 7.4), 1 mM DTT, 0.1% BSA and 100 μM GDP. To this was added an EC80 concentration of agonist (CP55940), the required concentration of test compound and 0.1 μCi [^35S]-GTPγS. The reaction was allowed to proceed at 30° C. for 45 min. […] Filters were then covered with scintilant and counted for the amount of [^35S]-GTPγS retained by the filter.
Activity is measured in the absence of all ligands (minimum activity) or in the presence of an EC80 concentration of CP55940 (maximum activity). […] At various concentrations of novel ligand, activity is calculated as a percentage of the maximum activity and plotted. The data are fitted using the equation y=A+((B-A)/1+((C/x) UD)) and the IC50 value determined as the concentration required to give half maximal inhibition of GTPγS binding under the conditions used.

[2] = Solubility in dimethyl sulfoxide; format: physicochemical
Text: The compounds of the present invention have improved solubility in organic solvents compared to compounds in the prior art. […] It would be expected that this increase in solubility in organic solvents would lead to improvements in bioavailability and ease of manufacture and formulation.

T1 sequence (P21554 whole entry): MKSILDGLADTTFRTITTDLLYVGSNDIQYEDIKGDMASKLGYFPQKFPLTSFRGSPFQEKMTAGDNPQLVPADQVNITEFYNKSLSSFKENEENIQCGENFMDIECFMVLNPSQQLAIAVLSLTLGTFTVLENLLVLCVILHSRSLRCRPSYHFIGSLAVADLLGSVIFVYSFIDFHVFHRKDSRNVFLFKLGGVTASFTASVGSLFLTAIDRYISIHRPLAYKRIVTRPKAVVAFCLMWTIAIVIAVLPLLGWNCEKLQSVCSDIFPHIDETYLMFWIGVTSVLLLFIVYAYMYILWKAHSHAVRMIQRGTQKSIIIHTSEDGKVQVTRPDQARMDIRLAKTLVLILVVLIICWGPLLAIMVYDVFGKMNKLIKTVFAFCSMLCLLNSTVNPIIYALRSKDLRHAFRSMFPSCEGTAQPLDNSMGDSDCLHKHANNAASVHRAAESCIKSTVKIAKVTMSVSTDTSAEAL

IC50 [1] [pM]	solubility in dimethyl sulfoxide [2]	Compound
980	–	Cc1c2c(n(-c3ccccc3Cl)c1-c1ccc(OS(=O)(=O)CCC(F)(F)F)cc1)CCN(N1CCCCC1)C2=O [Example 1, 3,3,3-Trifluoropropane-1-sulfonic acid 4-[1-(2-chlorophenyl)-3-methyl-4-oxo-5-piperidin-1-yl-4,5,6,7-tetrahydro-1H-pyrrolo[3,2-c]pyridine-2-yl]phenyl ester]
–	insoluble	Cc1c2c(n(-c3ccc(Cl)cc3Cl)c1-c1ccc(Cl)cc1)CCN(N1CCCCC1)C2=O [Example 19 of WO03/027114, 2-(4-chlorophenyl)-1-(2,4-dichlorophenyl)-3-methyl-5-(1-piperidinyl)-1,5,6,7-tetrahydro-4H-pyrrolo-[3,2-c]pyridin-4-one]
